Paper PMC7376644 (Pharmacology Research & Perspectives, 2020)
“And” between values parts separate entries of the source, which are not always exact repeats. Identical values can stand only once. Like-named read-outs stand apart in the source and are kept apart here.

Legend:
[1] = molecular target: CYP2C19 (Homo sapiens, UniProt P33261); test: Qualitative substrate disappearance assay; assay type: in vitro ADME; design: purchased CYPEX CYP008; host or cells: Escherichia coli; conditions: 20 pmols rCYP, 1.0 µmol/L substrate, 30 minutes
Chain of CYP2C19 (P33261 whole entry): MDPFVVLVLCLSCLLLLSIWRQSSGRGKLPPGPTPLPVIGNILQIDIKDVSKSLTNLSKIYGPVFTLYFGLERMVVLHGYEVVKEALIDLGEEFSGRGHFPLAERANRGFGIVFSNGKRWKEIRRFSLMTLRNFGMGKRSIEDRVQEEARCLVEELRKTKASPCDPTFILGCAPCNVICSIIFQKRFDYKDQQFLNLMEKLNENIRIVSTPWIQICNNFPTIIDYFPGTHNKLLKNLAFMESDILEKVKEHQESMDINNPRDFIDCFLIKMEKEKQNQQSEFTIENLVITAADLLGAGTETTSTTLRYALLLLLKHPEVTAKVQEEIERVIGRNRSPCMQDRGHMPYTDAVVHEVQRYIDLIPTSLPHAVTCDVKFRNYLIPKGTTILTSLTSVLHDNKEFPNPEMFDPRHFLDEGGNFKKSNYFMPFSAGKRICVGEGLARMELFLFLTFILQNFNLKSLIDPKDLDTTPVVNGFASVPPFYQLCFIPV
Protocol: All reactions were performed in triplicate in 96‐well plates. […] The substrate was diluted to 40% ACN so that the percent organic component in the final solution was maintained at 1%. […] The reactions were initiated by addition of NADPH after a pre‐incubation of 5 minutes at 37°C. All reactions were terminated by the addition of 150 µL of ice‐cold ACN at either 0 minute (control) or 30 minutes (reaction). This was followed by centrifugation at 4500 g for 20 minutes. An aliquot (50 µL) supernatant was collected and 5 µL was injected and analyzed by liquid chromatography/tandem mass spectrometry (LC/MS/MS). Metabolism was signified qualitatively by loss of substrate from the media using the relationship: %remaining compound=[…]Peak area atT30min/Peak area atT0min×100.

[2] = molecular target: T1, CYP1A2 (Homo sapiens, UniProt P05177); test: in vitro; conditions: recombinant CYP1A2, pH 7.4
T1 sequence (P05177 1-516): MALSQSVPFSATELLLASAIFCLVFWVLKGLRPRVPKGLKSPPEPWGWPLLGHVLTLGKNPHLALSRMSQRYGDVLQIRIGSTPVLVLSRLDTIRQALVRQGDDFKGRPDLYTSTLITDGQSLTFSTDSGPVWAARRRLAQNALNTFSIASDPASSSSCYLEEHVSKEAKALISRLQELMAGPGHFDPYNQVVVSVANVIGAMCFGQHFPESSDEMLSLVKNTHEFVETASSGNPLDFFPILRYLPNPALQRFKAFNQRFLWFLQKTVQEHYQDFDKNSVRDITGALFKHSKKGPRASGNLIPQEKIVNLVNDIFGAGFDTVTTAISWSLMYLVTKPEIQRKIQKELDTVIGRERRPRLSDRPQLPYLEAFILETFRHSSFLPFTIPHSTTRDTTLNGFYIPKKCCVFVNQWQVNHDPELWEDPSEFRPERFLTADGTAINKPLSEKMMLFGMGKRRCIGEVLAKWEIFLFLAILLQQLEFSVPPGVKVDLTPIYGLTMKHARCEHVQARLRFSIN

[3] = test system: HLM; test: Enzyme kinetics of hydroxylated metabolites formation; assay type: in vitro ADME, human
Protocol: The reactions were carried out in duplicate at each time point. Incubation conditions used for the determination of K M and V max were optimized for linearity with respect to time and protein concentrations. […] Metabolites were analyzed by LC‐MS/MS as described below. The K M and V max values of each marker substrate were determined using nonlinear least squares regression analysis in GraFit software (version 3.0, Erithacus Software Limited) and SigmaPlot Enzyme Kinetics Module for Windows 7.0 (SPSS, Inc). […]

[4] = molecular target: T1, CYP1A2; test: Intrinsic clearance, substrate depletion approach
[5] = PZQ-ketoconazole DDI pharmacokinetic study in healthy volunteers; assay type: in vivo, human; conditions: for AUC(0-inf) / AUC / CL/F / k el / half-life / Tmax / Vd/F: male, human, plasma
Protocol: Plasma samples were obtained from the AiBST biobank. […] Each participant served as their own control. Each participant provided written informed consent to take part in the study and the study was carried out according to Helsinki Declaration of 1975, as revised in 2008. The study was approved by the Medical Research Council of Zimbabwe (MRCZ) and the Medicines Controls Authority of Zimbabwe (MCAZ). […] The samples were vortexed for 30 seconds and left under gentle agitation for 25 minutes. […] From the supernatant, 20 μL was injected onto the chiral HPLC system for analysis. […] Detection was done using a UV diode array detector at 210 nm. […] The data were gathered and processed using Agilent OpenLab CDS for Chemstation software version 1.9. Linear calibration curves were plotted as concentration vs peak area ratio for analyte to IS with no weighting. […] The pharmacokinetic (PK) analysis was performed using the WinNonlin program, version 8.2 (Pharsight Corp). […] A non-compartmental approach was used for curve plotting and parameter calculation. The area under the curve (AUC) from time 0 to the last sampling time point (AUCt) was computed using the log-linear trapezoidal rule. The linear trapezoidal rule was used for the ascending part of the PK curve, while the log trapezoidal rule was used for the descending part of the graph. The AUC extrapolated to infinite time was calculated as AUC∞ = AUCt + Ct/K el where Ct is the concentration of the last sample taken and K el is the terminal elimination rate constant. The terminal elimination rate constant K el was determined by least squares regression analysis in the terminal phase of the semi log concentration-time curve. […] Statistical analysis was performed using the GraFit software (version 3.0, Erithacus Software Limited). […] Analysis of variance (ANOVA) was performed on the AUC and C max after transformation of the data to their natural logarithmic (ln) values.

[6] = cited from earlier work
[7] = PZQ + ketoconazole vs PZQ alone
[8] = single oral 20 mg/kg PZQ alone, n = 9, listed as R‐Praziquantel, 20 mg/kg

SMILES: O=C(C1CCCCC1)N1CC(=O)N2CCc3ccccc3[C@@H]2C1 [R‐PZQ, R‐Praziquantel]
- Depletion of substrate by CYP2C19 [1]: complete depletion
- half-life at 1 µmol/L [2]: 7.54 min
- K M [SD] ([3]; formation of X‐OH‐PZQ): 29.30 [4.020] µmol/L
- V max [SD] ([3]; formation of X‐OH‐PZQ): 1.2 nmol/min/mg protein and 1.200 [0.06266] nmol/min/mg protein
- K M [SD] ([3]; formation of cis‐4‐OH‐PZQ): 38.90 [5.469] µmol/L
- V max [SD] ([3]; formation of cis‐4‐OH‐PZQ): 0.7572 [0.0447] nmol/min/mg protein
- Predicted CLH ([4]; rCYP1A2, substrate depletion): 5.071 mL/min/kg
- Predicted CLuH,int ([4]; rCYP1A2, substrate depletion): 27.80 mL/min/kg
- Clearance class, CYP1A2‐mediated ([4]; substrate depletion): high
- Clearance by CYP1A2, R‐PZQ compared to S‐PZQ ([4]; substrate depletion, times faster): 2 times
- Clearance/F, treatment mean (SD) ([5]; 20 mg/kg PZQ plus 200 mg ketoconazole, n = 9): 1146 (992.1) L/h
- Decrease of mean C max with KTZ ([5]; PZQ + KTZ vs PZQ alone): 11.85%
- AUCinf, difference observed % [5, 7]: 9% and 9.26%
- AUCt0‐tlast, difference observed % [5, 7]: −14.68%
- C max, difference observed % [5, 7]: −11.85%
- Clearance/F, difference observed % [5, 7]: 26.99%
- Elimination rate constant, difference observed % [5, 7]: −4.350%
- Half life, difference observed % [5, 7]: 79.64%
- T max, difference observed % [5, 7]: −46.33%
- V d/F, difference observed % [5, 7]: 74.87%
- AUCinf, difference observed % ([5]; PZQ + ketoconazole vs PZQ alone, listed as R‐Praziquantel): 9.290%
- AUC(0-inf) ([5]; oral, 20 mg/kg, 20 mg/kg PZQ plus 200 mg ketoconazole, n = 9, read-out: AUCinf, treatment geo mean): 1290 ng·h/mL
- AUC(0-inf) ([5]; oral, 20 mg/kg, 20 mg/kg PZQ plus 200 mg ketoconazole, n = 9, read-out: AUCinf, treatment mean (SD)): 1470 ng·h/mL
- AUC ([5]; oral, 20 mg/kg, 20 mg/kg PZQ plus 200 mg ketoconazole, n = 9, read-out: AUCt0‐tlast, treatment geo mean): 945 ng·h/mL
- CL/F ([5]; oral, 20 mg/kg, 20 mg/kg PZQ plus 200 mg ketoconazole, n = 9, read-out: Clearance/F, treatment geo mean (converted)): 15300 mL/min
- CL/F ([5]; oral, 20 mg/kg, 20 mg/kg PZQ plus 200 mg ketoconazole, n = 9, read-out: Clearance/F, treatment mean (SD) (converted)): 19100 mL/min
- k el ([5]; oral, 20 mg/kg, 20 mg/kg PZQ plus 200 mg ketoconazole, n = 9, read-out: Elimination rate constant, treatment geo mean (converted)): 4.44e-05 s⁻¹
- k el ([5]; oral, 20 mg/kg, 20 mg/kg PZQ plus 200 mg ketoconazole, n = 9, read-out: Elimination rate constant, treatment mean (SD) (converted)): 6.11e-05 s⁻¹
- half-life ([5]; oral, 20 mg/kg, 20 mg/kg PZQ plus 200 mg ketoconazole, n = 9, read-out: Half life, treatment geo mean (converted)): 4.14 h
- half-life ([5]; oral, 20 mg/kg, 20 mg/kg PZQ plus 200 mg ketoconazole, n = 9, read-out: Half life, treatment mean (SD) (converted)): 6 h
- Tmax ([5]; oral, 20 mg/kg, 20 mg/kg PZQ plus 200 mg ketoconazole, n = 9, read-out: T max, treatment geo mean): 1.53 h
- Tmax ([5]; oral, 20 mg/kg, 20 mg/kg PZQ plus 200 mg ketoconazole, n = 9, read-out: T max, treatment mean (SD)): 1.61 h
- Vd/F ([5]; oral, 20 mg/kg, 20 mg/kg PZQ plus 200 mg ketoconazole, n = 9, read-out: V d/F, treatment geo mean): 5480 L
- Vd/F ([5]; oral, 20 mg/kg, 20 mg/kg PZQ plus 200 mg ketoconazole, n = 9, read-out: V d/F, treatment mean (SD)): 7880 L
- AUC ([5]; oral, 20 mg/kg, AUC, PZQ alone): 1350 ± 1470 ng·h/mL
- AUC ([5]; oral, 20 mg/kg, read-out: AUC from the in vivo pharmacokinetic study): 2400 ng·h/mL
- AUC ([5]; oral, AUC, PZQ + KTZ): 1470 ± 767 ng·h/mL
- AUC(0-inf) ([5]; po, 20 mg/kg, single oral 20 mg/kg PZQ alone, n = 9, read-out: AUCinf, reference geo mean): 1300 ng·h/mL
- AUC(0-inf) ([5]; po, 20 mg/kg, single oral 20 mg/kg PZQ alone, n = 9, read-out: AUCinf, reference mean (SD)): 1340 ng·h/mL
- AUC ([5]; po, 20 mg/kg, single oral 20 mg/kg PZQ alone, n = 9, read-out: AUCt0‐tlast, reference geo mean): 1120 ng·h/mL
- AUC ([5]; po, 20 mg/kg, single oral 20 mg/kg PZQ alone, n = 9, read-out: AUCt0‐tlast, reference mean (SD)): 1240 ng·h/mL
- CL/F ([5]; po, 20 mg/kg, single oral 20 mg/kg PZQ alone, n = 9, read-out: Clearance/F, reference geo mean (converted)): 14600 mL/min
- CL/F ([5]; po, 20 mg/kg, single oral 20 mg/kg PZQ alone, n = 9, read-out: Clearance/F, reference mean (SD) (converted)): 15000 mL/min
- k el ([5]; po, 20 mg/kg, single oral 20 mg/kg PZQ alone, n = 9, read-out: Elimination rate constant, reference geo mean (converted)): 6.11e-05 s⁻¹
- k el ([5]; po, 20 mg/kg, single oral 20 mg/kg PZQ alone, n = 9, read-out: Elimination rate constant, reference mean (SD) (converted)): 6.39e-05 s⁻¹
- half-life ([5]; po, 20 mg/kg, single oral 20 mg/kg PZQ alone, n = 9, read-out: Half life, reference geo mean (converted)): 3.21 h
- half-life ([5]; po, 20 mg/kg, single oral 20 mg/kg PZQ alone, n = 9, read-out: Half life, reference mean (SD) (converted)): 3.34 h
- Tmax ([5]; po, 20 mg/kg, single oral 20 mg/kg PZQ alone, n = 9, read-out: T max, reference geo mean): 2.59 h
- Tmax ([5]; po, 20 mg/kg, single oral 20 mg/kg PZQ alone, n = 9, read-out: T max, reference mean (SD)): 3 h
- Vd/F ([5]; po, 20 mg/kg, single oral 20 mg/kg PZQ alone, n = 9, read-out: V d/F, reference geo mean): 4050 L
- Vd/F ([5]; po, 20 mg/kg, single oral 20 mg/kg PZQ alone, n = 9, read-out: V d/F, reference mean (SD)): 4510 L
- Clearance/F, reference mean (SD) ([5]; single oral 20 mg/kg PZQ alone, n = 9, 20 mg/kg): 902.09 ± 264 L/h
- C max, reference mean (SD) [5, 8]: 313.1 (131.1) ng/mL
- Clearance/F, reference mean (SD) [5, 8]: 902.1 (264.9) L/h
- Fraction unbound in plasma (fu) [6]: 0.2
